These results are taken from patent US7645752B2, “Sulfonyl substituted 1H-indoles as ligands for the 5-hydroxytryptamine receptors” (Wyeth LLC, priority 2006, dated 2010).

One test has as its target T1, human hNET (Homo sapiens, UniProt P23975).
T1 construct: expressed in transfected cells
In words: Norepinephrine (NE) uptake assay in MDCK-Net6 cells. The class given is cell-based.

A further test concerns the target human 5-HT2A receptor (Homo sapiens, UniProt P28223). As to the kind of experiment: 5-HT2A FLIPR assay, antagonism of DOI calcium response in CHO cells.
For test [1], the target named is T2, human cloned 5-HT6 receptors (Homo sapiens, UniProt P50406).
T2 construct: expressed in transfected cells; host or cells: HeLa cells
T2 sequence (P50406 whole entry): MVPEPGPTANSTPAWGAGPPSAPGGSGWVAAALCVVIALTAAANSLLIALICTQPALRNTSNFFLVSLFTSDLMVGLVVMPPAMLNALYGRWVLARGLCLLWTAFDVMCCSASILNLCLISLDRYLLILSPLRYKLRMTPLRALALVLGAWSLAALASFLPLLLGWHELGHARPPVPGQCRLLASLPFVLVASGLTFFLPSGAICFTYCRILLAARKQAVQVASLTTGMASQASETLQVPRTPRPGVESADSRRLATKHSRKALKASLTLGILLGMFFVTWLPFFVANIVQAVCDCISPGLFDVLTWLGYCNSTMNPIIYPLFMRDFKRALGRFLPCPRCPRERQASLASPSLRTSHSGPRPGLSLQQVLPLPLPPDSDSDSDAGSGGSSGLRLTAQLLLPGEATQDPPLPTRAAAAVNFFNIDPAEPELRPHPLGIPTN
In words: 5-HT6 binding affinity, [3H]-LSD displacement on membranes of Hela cells. Particulars: for inhibition at 1 µM: read-out: % inhibition at 1 micromole. The procedure, abridged: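 Filter-bound radioactivity counted by scintillation. Binding at varying test-compound concentrations expressed as percent of specific binding without compound and plotted log % bound versus log concentration.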

The conditions of test [2]: background statement; cited from earlier work.
[3] abbreviates: Table 1, [3H]-LSD 3.0 nM, Hela cell membranes, read-out: Ki (nM) @ 5-HT6 receptor.

Molecules are shown by their SMILES. Where two headings read alike, the source gives them in different places.

T1 sequence (P23975 whole entry): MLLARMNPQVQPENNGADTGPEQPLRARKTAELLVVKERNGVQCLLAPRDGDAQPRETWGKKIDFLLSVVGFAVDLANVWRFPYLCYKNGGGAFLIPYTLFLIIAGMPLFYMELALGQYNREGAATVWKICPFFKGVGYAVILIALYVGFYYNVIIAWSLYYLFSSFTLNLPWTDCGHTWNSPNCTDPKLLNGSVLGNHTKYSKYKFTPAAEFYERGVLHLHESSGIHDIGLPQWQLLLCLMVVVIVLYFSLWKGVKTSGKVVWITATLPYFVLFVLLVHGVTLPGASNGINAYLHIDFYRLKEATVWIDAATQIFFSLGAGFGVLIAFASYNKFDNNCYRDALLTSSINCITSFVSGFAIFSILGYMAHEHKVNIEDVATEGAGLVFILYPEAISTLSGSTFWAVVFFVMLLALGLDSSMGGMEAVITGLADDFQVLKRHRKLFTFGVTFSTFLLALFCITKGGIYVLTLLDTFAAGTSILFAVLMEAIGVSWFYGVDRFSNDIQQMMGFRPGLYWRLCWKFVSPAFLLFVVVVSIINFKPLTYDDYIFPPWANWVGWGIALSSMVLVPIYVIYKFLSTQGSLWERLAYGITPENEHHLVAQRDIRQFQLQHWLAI
Chain of human 5-HT2A receptor (P28223 whole entry): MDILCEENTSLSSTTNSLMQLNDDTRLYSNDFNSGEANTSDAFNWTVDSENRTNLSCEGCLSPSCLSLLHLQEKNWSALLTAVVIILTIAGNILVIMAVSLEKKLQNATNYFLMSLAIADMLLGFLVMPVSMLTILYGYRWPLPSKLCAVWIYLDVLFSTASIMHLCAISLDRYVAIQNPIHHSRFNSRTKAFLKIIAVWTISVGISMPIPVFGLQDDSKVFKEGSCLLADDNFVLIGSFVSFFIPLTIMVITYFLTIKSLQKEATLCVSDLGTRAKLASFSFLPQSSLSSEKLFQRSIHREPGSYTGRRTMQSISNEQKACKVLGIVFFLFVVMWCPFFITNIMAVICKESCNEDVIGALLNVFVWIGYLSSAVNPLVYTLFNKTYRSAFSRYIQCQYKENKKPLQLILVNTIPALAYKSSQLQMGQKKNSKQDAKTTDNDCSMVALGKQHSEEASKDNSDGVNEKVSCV

A word on the IC50: it is the concentration at which inhibition is half-maximal. What is called Ki is the equilibrium dissociation constant of an inhibitor or competing ligand from its target. Turning to `O=S(=O)(c1ccccc1)c1c[nH]c2cccc(CCNCc3ccccc3)c12` [Example 47, N-benzyl-N-{2-[3-(phenylsulfonyl)-1H-indol-4-yl]ethyl}amine], the IC50 at human hNET ([3H]NE uptake, MDCK-Net6 cells) was 311 nM; at human 5-HT2A receptor, 836 nM. Besides, the Ki in test [1] (setting [3]) worked out at 123 nM; in test [1] (Table 2, read-out: 5-HT6 Ki), 123 nM.
As usually defined, the inhibition is the change of the read-out against control, counted positive when it falls. As to `CC(C)CNCCc1cccc2[nH]cc(S(=O)(=O)c3ccccc3)c12` [Example 48, N-isobutyl-N-{2-[3-(phenylsulfonyl)-1H-indol-4-yl]ethyl}amine], the IC50 against human hNET ([3H]NE uptake, MDCK-Net6 cells) amounted to 430 nM; at human 5-HT2A receptor, 528 nM. Moreover, the Ki in test [1] (Table 2, read-out: 5-HT6 Ki) worked out at 450 nM. Also, the inhibition at 1 µM in test [1] turned out to be 66%.
Turning to `O=S(=O)(c1ccccc1)c1c[nH]c2cccc(CCNCC3CCCO3)c12` (stereo not drawn) [Example 51, N-{2-[3-(phenylsulfonyl)-1H-indol-4-yl]ethyl}-N-((tetrahydrofur-2-yl)methyl)amine], the inhibition at 1 µM worked out at 52% against human hNET (MDCK-Net6) and 94% on human 5-HT2A receptor (CHO, read-out: 5-HT2A % Inhibition @ 1 uM). Besides, the Ki in test [1] (setting [3]) turned out to be 191 nM; in test [1] (Table 2, read-out: 5-HT6 Ki), 191 nM.
`NCCc1cccc2[nH]cc(S(=O)(=O)c3ccccc3)c12` [Example 61, {2-[3-(phenylsulfonyl)-1H-indol-4-yl]ethyl}amine]: the IC50 worked out at 961 nM on human hNET and 14000 nM on human 5-HT2A receptor. The inhibition at 1 µM in test [1] (Table 1, 5-HT6 binding, at 1 micromole) was 44%. Besides, the Ki in test [1] (setting [3]) was 993 nM; in test [1] (Table 2, read-out: 5-HT6 Ki), 993 nM.
Regarding `CN1CCN2c3ccccc3Cc3ccccc3C2C1` (stereo not drawn) [Mianserin, reference compound], in test [2], the “efficacy in hot flushes” value is recorded as “had efficacy in treating hot flushes”.
